Results reported in the NIST ThermoML archive (doi:10.1016/j.jct.2015.06.002).
± gives the expanded uncertainty stated by the source.

Columns and labels:
[1] = Boiling temperature at pressure P; conditions: Liquid, Gas chromatography
[2] = 298.15 K; Liquid; Gas chromatography

Boiling temperature at pressure P ([1]; 0.267 kPa): 116 ± 20 °C | Boiling temperature at pressure P ([1]; 101.33 kPa): 276.0 ± 20 °C | vapor or sublimation pressure [2]: 8.3e-05 ± 2.5e-05 kPa
SMILES: C/C=C/C=C/CCCCCCCO [(E,E)-8,10-dodecadien-1-ol]
